Test system: P388
Assay: Cytotoxicity against mouse P388 cells
Format: functional

## COc1ccc2c3c(c4cc(OC)c(OC)cc4c2c1)[C@@H](O)[C@@H]1CCCN1C3 [HYPOESTESTATIN 2]
  ED50: 4 ×10⁻⁵ ug/ml
